Each structure is given as a SMILES string. Where only a bound is given, the exact number is not on record here.

Consider 29 compounds from patent US20250333406A1, “SULFONYL CYCLIC DERIVATIVES, AND COMPOSITIONS AND METHODS THEREOF” (Lysoway Therapeutics, Inc., priority 2023, published 2025).

In the assay the test system is TFEB. The assay can be described thus: TFEB Nuclear Translocation Assay. The class given is cell-based. The settings on record: read-out: EC50 of TFEB activation.
Consider `CC(C)S(=O)(=O)c1ccc(S(=O)(=O)n2nc(N3CCC(F)(F)CC34CC4)c3c(Cl)cccc32)cc1` [Compound 53, 4-chloro-3-(7,7-difluoro-4-azaspiro [2.5]octan-4-yl)-1-(4-isopropylsulfonylphenyl) sulfonyl-indazole], for which the EC50 was not above 1000 nM.

With `CC(C)S(=O)(=O)c1ccc(S(=O)(=O)n2nc(N3CCC(Cl)(Cl)CC34CC4)c3c(Cl)cccc32)cc1` [Compound 54, 4-chloro-3-(7,7-dichloro-4-azaspiro [2.5]octan-4-yl)-1-(4-isopropylsulfonylphenyl) sulfonyl-indazole], the EC50 is not above 1000 nM.

As to `CC(C)S(=O)(=O)c1ccc(S(=O)(=O)n2nc(N3CCN(C(=O)C(F)(F)F)CC34CC4)c3c(Cl)cccc32)cc1` [Compound 55, 1-[4-[4-chloro-1-(4-isopropylsulfonylphenyl)sulfonyl-indazol-3-yl]-4,7-diazaspiro [2.5]octan-7-yl]-2,2,2-trifluoro-ethanone], the EC50 was not above 1000 nM.

For `CC(=O)N1CCN(c2nn(S(=O)(=O)c3ccc(S(=O)(=O)C(C)C)cc3)c3cccc(Cl)c23)C2(CC2)C1` [Compound 56, 1-[4-[4-chloro-1-(4-isopropylsulfonylphenyl)sulfonyl-indazol-3-yl]-4,7-diazaspiro[2.5]octan-7-yl]ethanone], the EC50 was not above 1000 nM.

In the case of `CC(C)S(=O)(=O)c1ccc(S(=O)(=O)n2nc(N3CCN(C(=O)C4CC4)CC34CC4)c3c(Cl)cccc32)cc1` [Compound 57, [4-[4-chloro-1-(4-isopropylsulfonylphenyl)sulfonyl-indazol-3-yl]-4,7-diazaspiro[2.5]octan-7-yl]-cyclopropyl-methanone], the EC50 is not above 1000 nM.

As to `CC(C)S(=N)(=O)c1ccc(S(=O)(=O)n2nc(N3CCN(c4ncc(F)cn4)CC34CC4)c3c(Cl)cccc32)cc1` (centres unmarked) [Compound 58, [4-[4-chloro-3-[7-(5-fluoropyrimidin-2-yl)-4,7-diazaspiro [2.5]octan-4-yl]indazol-1-yl]sulfonylphenyl]-imino-isopropyl-oxo-λ6-sulfane], the EC50 was not above 1000 nM.

For `CC(C)S(=O)(=O)n1ccc(S(=O)(=O)n2nc(N3CCN(CC(F)(F)F)CC34CC4)c3c(Cl)cc(F)cc32)c1` [Compound 59, 4-chloro-6-fluoro-1-(1-isopropylsulfonylpyrrol-3-yl)sulfonyl-3-[7-(2,2,2-trifluoroethyl)-4,7-diazaspiro[2.5]octan-4-yl]indazole], the EC50 is not above 1000 nM.

For `CC(C)S(=O)(=O)c1ccc(S(=O)(=O)n2nc(N3CCN(c4ncc(F)cn4)C[C@@H]3C3CC3)c3c(Cl)cccc32)cc1` [Compound 60, (S)-4-chloro-3-(2-cyclopropyl-4-(5-fluoropyrimidin-2-yl)piperazin-1-yl)-1-((4-(isopropylsulfonyl)phenyl)sulfonyl)-1H-indazole], the EC50 was not above 1000 nM.

With `CC(C)S(=O)(=O)c1ccc(S(=O)(=O)n2nc(N3CCN(c4ncc(F)cn4)CC34CC4)c3c(Cl)cccc32)cc1F` [Compound 62, 4-chloro-1-(3-fluoro-4-isopropylsulfonyl-phenyl) sulfonyl-3-[7-(5-fluoropyrimidin-2-yl)-4,7-diazaspiro [2.5]octan-4-yl]indazole], the EC50 was not above 1000 nM.

Turning to `CC(C)S(=O)(=O)c1ccc(S(=O)(=O)n2nc(N3CCCCC3C3CC3)c3c(Cl)cccc32)cc1` (centres unmarked) [Compound 63, 4-chloro-3-(2-cyclopropyl-1-piperidyl)-1-(4-isopropylsulfonylphenyl) sulfonyl-indazole], the EC50 was not above 1000 nM.

Take `[2H]c1c([2H])c(S(=O)(=O)n2nc(N3CCN(c4ncc(F)cn4)CC34CC4)c3c(Cl)cccc32)c([2H])c([2H])c1S(=O)(=O)C(C)C` [Compound 64, 4-chloro-3-[7-(5-fluoropyrimidin-2-yl)-4,7-diazaspiro [2.5]octan-4-yl]-1-(2,3,5,6-tetradeuterio-4-isopropylsulfonyl-phenyl) sulfonyl-indazole]: the EC50 is not above 1000 nM.

For the compound `CC(C)S(=O)(=O)c1ccc(S(=O)(=O)n2nc(N3CCN(c4ncccn4)CC34CC4)c3c(Cl)cccc32)cc1` [Compound 65, 4-chloro-1-(4-isopropylsulfonylphenyl) sulfonyl-3-(7-pyrimidin-2-yl-4,7-diazaspiro[2.5]octan-4-yl) indazole], the EC50 is not above 1000 nM.

As to `CC(C)S(=O)(=O)c1ccc(S(=O)(=O)n2nc(N3CCCCC3C(F)(F)F)c3c(Cl)cccc32)cc1` (centres unmarked) [Compound 66, 4-chloro-1-(4-isopropylsulfonylphenyl)sulfonyl-3-[2-(trifluoromethyl)-1-piperidyl]indazole], the EC50 is not above 1000 nM.

As to `CC(C)S(=O)(=O)c1ccc(S(=O)(=O)n2nc(N3CCN(c4ncc(F)cn4)CC3C(F)(F)F)c3c(Cl)cccc32)cc1` (centres unmarked) [Compound 67, 4-chloro-3-[4-(5-fluoropyrimidin-2-yl)-2-(trifluoromethyl)piperazin-1-yl]-1-(4-isopropylsulfonylphenyl) sulfonyl-indazole], the concentration giving a half-maximal response (EC50) is not above 1000 nM.

As for `CC(C)S(=O)(=O)c1ccc(S(=O)(=O)n2nc(N3CCN(c4ncc(F)cn4)C[C@@H]3C(F)(F)F)c3c(Cl)cccc32)cc1` [Compound 68, 4-chloro-3-[(2R)-4-(5-fluoropyrimidin-2-yl)-2-(trifluoromethyl)piperazin-1-yl]-1-(4-isopropylsulfonylphenyl) sulfonyl-indazole], the EC50 was not above 1000 nM.

As for `CC(C)S(=O)(=O)c1ccc(S(=O)(=O)n2nc(N3CCN(C(=O)C(F)(F)F)C[C@@H]3C(F)(F)F)c3c(Cl)cccc32)cc1` [Compound 70, 1-[(3R)-4-[4-chloro-1-(4-isopropylsulfonylphenyl)sulfonyl-indazol-3-yl]-3-(trifluoromethyl)piperazin-1-yl]-2,2,2-trifluoro-ethanone], the EC50 is not above 1000 nM.

As to `CC(C)S(=O)(=O)c1ccc(S(=O)(=O)n2nc(N3CCN(c4ncc(F)cn4)C[C@@H]3C(F)(F)F)c3c(F)cccc32)cc1` [Compound 72, 4-fluoro-3-[(2R)-4-(5-fluoropyrimidin-2-yl)-2-(trifluoromethyl)piperazin-1-yl]-1-(4-isopropylsulfonylphenyl)sulfonyl-indazole], the EC50 is not above 1000 nM.

As to `CC(C)S(=O)(=O)c1ccc(S(=O)(=O)n2nc(N3CCN(C(=O)C(F)F)CC3C(F)(F)F)c3c(Cl)cccc32)cc1` (centres unmarked) [Compound 74, 1-[4-[4-chloro-1-(4-isopropylsulfonylphenyl)sulfonyl-indazol-3-yl]-3-(trifluoromethyl)piperazin-1-yl]-2,2-difluoro-ethanone], the EC50 is not above 1000 nM.

In the case of `CC(C)S(=O)(=O)c1ccc(S(=O)(=O)n2nc(N3CCN(CC(F)(F)F)CC3C(F)(F)F)c3c(Cl)cccc32)cc1` (centres unmarked) [Compound 75, 4-chloro-1-(4-isopropylsulfonylphenyl)sulfonyl-3-[4-(2,2,2-trifluoroethyl)-2-(trifluoromethyl)piperazin-1-yl]indazole], the EC50 was not above 1000 nM.

Consider `O=C(N1CCN(c2nn(S(=O)(=O)c3ccc(C(F)F)cc3)c3cccc(Cl)c23)C(C(F)(F)F)C1)C(F)(F)F` (centres unmarked) [Compound 76, 1-[4-[4-chloro-1-[4-(difluoromethyl)phenyl]sulfonyl-indazol-3-yl]-3-(trifluoromethyl)piperazin-1-yl]-2,2,2-trifluoro-ethanone], for which the EC50 was not above 1000 nM.

For `O=S(=O)(c1ccc(C(F)F)cc1)n1nc(N2CCN(c3ncc(F)cn3)CC2C(F)(F)F)c2c(Cl)cccc21` (centres unmarked) [Compound 77, 4-chloro-1-[4-(difluoromethyl)phenyl]sulfonyl-3-[4-(5-fluoropyrimidin-2-yl)-2-(trifluoromethyl)piperazin-1-yl]indazole], the EC50 is not above 1000 nM.

For `O=S(=O)(c1ccc(C(F)F)cc1)n1nc(N2CCN(c3ncc(F)cn3)CC23CC3)c2c(Cl)cccc21` [Compound 78, 4-chloro-1-[4-(difluoromethyl)phenyl]sulfonyl-3-[7-(5-fluoropyrimidin-2-yl)-4,7-diazaspiro [2.5]octan-4-yl]indazole], the EC50 is not above 1000 nM.

Regarding `CC(C)S(=O)(=O)c1ccc(S(=O)(=O)n2nc(N3CCC(Cl)=CC3C(F)(F)F)c3c(Cl)cccc32)cc1` (centres unmarked) [Compound 79, 4-chloro-3-[4-chloro-6-(trifluoromethyl)-3,6-dihydro-2H-pyridin-1-yl]-1-(4-isopropylsulfonylphenyl) sulfonyl-indazole], the EC50 was not above 1000 nM.

With `CC(C)S(=O)(=O)c1ccc(S(=O)(=O)n2nc(N3CCC(Cl)=C[C@@H]3C(F)(F)F)c3c(Cl)cccc32)cc1` [Compound 80, 4-chloro-3-[(6R)-4-chloro-6-(trifluoromethyl)-3,6-dihydro-2H-pyridin-1-yl]-1-(4-isopropylsulfonylphenyl)sulfonyl-indazole], the EC50 is not above 1000 nM.

Regarding `CC(C)S(=O)(=O)c1ccc(S(=O)(=O)n2nc(N3CCC(Cl)=C[C@H]3C(F)(F)F)c3c(Cl)cccc32)cc1` [Compound 81, 4-chloro-3-[(6S)-4-chloro-6-(trifluoromethyl)-3,6-dihydro-2H-pyridin-1-yl]-1-(4-isopropylsulfonylphenyl)sulfonyl-indazole], the EC50 was not above 1000 nM.

In the case of `CC(C)S(=O)(=O)c1ccc(S(=O)(=O)n2nc(N3CC=C(Cl)C[C@@H]3C(F)(F)F)c3c(Cl)cccc32)cc1` [Compound 82, 4-chloro-3-[(2R)-4-chloro-2-(trifluoromethyl)-3,6-dihydro-2H-pyridin-1-yl]-1-(4-isopropylsulfonylphenyl)sulfonyl-indazole], the EC50 was not above 1000 nM.

Turning to `CC(C)S(=O)(=O)c1ccc(S(=O)(=O)n2nc(N3CCC(=O)CC3C(F)(F)F)c3c(Cl)cccc32)cc1` (centres unmarked) [Compound 84, 1-[4-chloro-1-(4-isopropylsulfonylphenyl)sulfonyl-indazol-3-yl]-2-(trifluoromethyl)piperidin-4-one], the EC50 was not above 1000 nM.

`CC(C)S(=O)(=O)c1ccc(S(=O)(=O)n2nc(N3CCC(F)(F)CC3C(F)(F)F)c3c(Cl)cccc32)cc1` (centres unmarked) [Compound 85, 4-chloro-3-[4,4-difluoro-2-(trifluoromethyl)-1-piperidyl]-1-(4-isopropylsulfonylphenyl) sulfonyl-indazole]: the EC50 was not above 1000 nM.

As to `CC(C)S(=O)(=O)c1ccc(S(=O)(=O)n2nc(N3CCC(OC(F)F)CC3C(F)(F)F)c3c(Cl)cccc32)cc1` (centres unmarked) [Compound 86, 4-chloro-3-[4-(difluoromethoxy)-2-(trifluoromethyl)-1-piperidyl]-1-(4-isopropylsulfonylphenyl) sulfonyl-indazole], the EC50 is not above 1000 nM.

Usually EC50 stands for the concentration that produces a half-maximal response.
